Consider seven compounds from publication PMC4521925, “17β-Hydroxysteroid Dehydrogenase Type 2 Inhibition: Discovery of Selective and Metabolically Stable Compounds Inhibiting Both the Human Enzyme and Its Murine Ortholog” (PLoS ONE, 2015).

The structures appear in SMILES notation.

Data set [1] has as its target T1, m17β-HSD2 (Mus musculus, UniProt P51658).
T1 construct: The microsomal fraction (m17β-HSD2) was obtained from mouse liver as described for h17β-HSD2; tissue Pharmacelsus GmbH (mouse livers); host or cells: mouse liver, microsomal fraction
T1 sequence (P51658 1-381): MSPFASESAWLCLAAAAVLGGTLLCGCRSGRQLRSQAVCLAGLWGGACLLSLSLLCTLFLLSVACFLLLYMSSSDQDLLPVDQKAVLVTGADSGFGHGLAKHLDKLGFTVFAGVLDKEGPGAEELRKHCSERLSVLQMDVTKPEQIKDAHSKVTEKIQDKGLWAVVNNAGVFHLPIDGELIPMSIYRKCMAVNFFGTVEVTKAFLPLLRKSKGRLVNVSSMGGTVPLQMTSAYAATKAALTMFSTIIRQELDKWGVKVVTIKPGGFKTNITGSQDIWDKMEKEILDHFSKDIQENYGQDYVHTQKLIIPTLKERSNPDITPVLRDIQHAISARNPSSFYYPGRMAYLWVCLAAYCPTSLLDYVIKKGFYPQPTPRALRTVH
As to the kind of experiment: Inhibition of m17β-HSD2 in cell-free assay. The class given is biochemical. The note with it: read-out: % inh. at 1 μM m17β-HSD2. On the procedure:
(§1) h17β-HSD2, h17β-HSD1, m17β-HSD2 and m17β-HSD1 cell-free assays were performed similarly, by incubating enzyme, tritiated substrate, cofactor and inhibitor, according to described procedures.
The microsomal fraction (m17β-HSD2) was obtained from mouse liver as described for h17β-HSD2. Inhibitory activities were evaluated by a method identical to the one described for the human enzyme.
(§2) Inhibitory activities were evaluated following an established method with minor modifications. Briefly, the enzyme preparation was incubated with NAD^+ [1500 μM] in the presence of potential inhibitors at 37C in a phosphate buffer (50 mM) supplemented with 20% of glycerol and EDTA 1mM. Inhibitor stock solutions were prepared in DMSO. Final concentration of DMSO was adjusted to 1% in all samples. […] After 20 min, the incubation was stopped with HgCl2 and the mixture was extracted with ether. After evaporation, the steroids were dissolved in acetonitrile/water (45:55). […] Detection and quantification of the steroids were performed using a radioflow detector (Berthold Technologies, Bad Wildbad). […] Each value was calculated from at least two independent experiments.

Data set [2] deals with T2, h17β-HSD1 (Homo sapiens, UniProt P14061).
T2 construct: h17β-HSD1 was obtained after precipitation with ammonium sulfate from the cytosolic fraction; from tissue; host or cells: human placenta, cytosolic fraction
T2 sequence (P14061 1-328): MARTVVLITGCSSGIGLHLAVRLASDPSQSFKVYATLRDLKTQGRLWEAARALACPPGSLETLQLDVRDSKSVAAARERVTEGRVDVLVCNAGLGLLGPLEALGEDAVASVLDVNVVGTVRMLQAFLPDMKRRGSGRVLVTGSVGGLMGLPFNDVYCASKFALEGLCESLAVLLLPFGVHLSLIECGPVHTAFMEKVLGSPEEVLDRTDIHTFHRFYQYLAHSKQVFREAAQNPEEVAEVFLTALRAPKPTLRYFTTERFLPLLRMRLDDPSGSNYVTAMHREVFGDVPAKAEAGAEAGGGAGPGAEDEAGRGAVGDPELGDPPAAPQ
Description: Inhibition of h17β-HSD1 in cell-free assay. Type of data set: biochemical. The note with it: human placental cytosolic fraction, substrate E1 [500 nM], cofactor NADH [500 μM]; for inhibition at 1 µM: read-out: % inh. at 1 μM h17β-HSD1. The protocol:
as §1
(§3) Cytosolic (h17β-HSD1) and microsomal (h17β-HSD2) fractions were obtained from human placenta according to previously described procedures. Fresh tissue was homogenized and the enzymes were separated from the mitochondria, cell membrane. Nucleus and other rests by fractional centrifugation at 1000 g, 10.000 g and 150.000 g. The pellet fraction containing the microsomal h17β-HSD2 was used for the determination of h17β-HSD2 inhibition, while h17β-HSD1 was obtained after precipitation with ammonium sulfate from the cytosolic fraction for use of testing of h17β-HSD1 inhibition. Aliquots containing h17β-HSD1 or h17β-HSD2 were stored frozen.
(§4) The 17β-HSD1 inhibition assay was performed similarly to the h17β-HSD2 test. The human cytosolic enzyme was incubated with NADH [500 μM] while the mouse recombinant enzyme was reacted with NADPH [500 μM].Test compound and a mixture of unlabelled- and [^3H]-E1 (final concentration: 500 nM, 0.15 μCi) were added and mixed for 10 min at 37°C. Further treatment of the samples and HPLC separation was carried out as mentioned above for h17β-HSD2.

Data set [3] concerns the target T3, m17β-HSD1 (Mus musculus, UniProt P51656).
T3 construct: host or cells: HEK 293 cells, transient transfection, 1000 g supernatant of the lysate
T3 sequence (P51656 1-344): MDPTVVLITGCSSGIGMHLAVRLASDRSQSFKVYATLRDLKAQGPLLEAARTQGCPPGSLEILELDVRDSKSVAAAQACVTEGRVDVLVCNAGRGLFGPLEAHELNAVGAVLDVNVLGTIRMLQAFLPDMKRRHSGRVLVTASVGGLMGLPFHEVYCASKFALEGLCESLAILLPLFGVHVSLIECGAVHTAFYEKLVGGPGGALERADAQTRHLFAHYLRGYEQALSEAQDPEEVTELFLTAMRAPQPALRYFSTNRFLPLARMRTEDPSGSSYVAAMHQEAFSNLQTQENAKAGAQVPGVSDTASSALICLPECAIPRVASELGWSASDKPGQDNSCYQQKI
As to the kind of experiment: Inhibition of m17β-HSD1 in cell-free assay. The class given is biochemical. The note with it: recombinant m17β-HSD1, substrate E1 [500 nM], NADPH [500 μM]. On the procedure: as §1
Recombinant m17β-HSD1 enzyme was produced by transfection of HEK 293 cells with a m17β-HSD1 expression plasmid (coding sequence of NM_010475 in pCMV6Entry vector, OriGene Technologies, Inc.) according to a described procedure. 48 hours after transfection cells were homogenized by sonication (3 x 10 s) in a buffer containing saccharose (40 mMTris, 250 mM saccharose, 5 mM EDTA, 7 mM DTT, 1 mM PMSF, pH 7,5). Cell lysate was centrifuged (1000 g, 15 min, 4°C) and 20% glycerol was added to the supernatant before aliquots were frozen and stored at -70°C.
as §4

Data set [4] concerns the target T4, h17β-HSD2 (Homo sapiens, UniProt P37059).
T4 sequence (P37059 1-387): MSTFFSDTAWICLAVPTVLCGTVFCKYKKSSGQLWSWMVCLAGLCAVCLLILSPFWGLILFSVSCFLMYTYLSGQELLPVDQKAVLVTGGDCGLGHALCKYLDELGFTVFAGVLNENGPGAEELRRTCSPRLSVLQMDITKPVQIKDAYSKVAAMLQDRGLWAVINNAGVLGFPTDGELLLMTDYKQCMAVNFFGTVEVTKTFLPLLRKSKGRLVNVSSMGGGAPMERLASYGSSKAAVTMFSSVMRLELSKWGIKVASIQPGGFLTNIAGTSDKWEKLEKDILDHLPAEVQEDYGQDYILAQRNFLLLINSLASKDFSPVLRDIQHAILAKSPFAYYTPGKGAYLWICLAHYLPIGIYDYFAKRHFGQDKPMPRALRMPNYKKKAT
Description: Inhibition of h17β-HSD2 in cell-free assay. Further details: from tissue; host or cells: human placenta, microsomal fraction. The note with it: for inhibition at 1 µM: read-out: % inh. at 1 μM h17β-HSD2; for s.f. (selectivity factor) = IC50(17β-HSD1)/IC50(17β-HSD2): human enzymes, cell-free. Type of data set: biochemical. On the procedure:
as §1, §3, §2

The nature of data set [5]: Metabolic stability in a cell-free assay (liver S9 fraction). The note with it: pooled liver S9 fraction; human liver S9 fraction 1 mg/ml, NADPH regenerating system, UDPGA, PAPS, 37°C; inhibitor 1 μM; read-out: Inhibitor t1/2. The class given is in vitro ADME. The protocol:
Compounds 7a, 8a, 16a, 19a, 22a, 27a and 27 were tested according to established method[33–35]For evaluation of phase I and II metabolic stability 1 μM compound was incubated with 1 mg/ml pooled mammalian liver S9 fraction (BD Gentest), 2 mM NADPH regenerating system, 1 mM UDPGA and 0.1 mM PAPS at 37°C for 0, 5, 15 and 60 minutes at a final volume of 100 μL. The incubation was stopped by precipitation of S9 enzymes with 2 volumes of cold acetonitrile containing internal standard. Concentration of the remaining test compound at the different time points was analyzed by LC-MS/MS and used to determine half-life (t1/2).

A word on the melting point: it is the temperature of the solid-liquid transition. For orientation: IC50 means the concentration that gives 50% inhibition. Low readings indicate inhibition by little substance, high ones a need for much substance.

Consider `COc1cccc(N(C)C(=O)c2ccc(-c3cccc(OC)c3F)cc2)c1` [Compound 19a, 2'-Fluoro-3'-methoxy-N-(3-methoxyphenyl)-N-methyl-[1,1'-biphenyl]-4-carboxamide], for which the melting point lay in the range of 125 to 127 °C. The inhibition at 1 µM in data set [1] amounted to 67%. In addition, in data set [2], the inhibition at 1 µM amounted to 35%. The “inhibition of m17β-HSD1 at 1 μM” value in data set [3] is given as “None of the tested compounds showed any inhibition”. Also, the inhibition at 1 µM in data set [4] is 64%.
Compound `COc1cccc(N(C)C(=O)c2ccc(-c3cccc(C)c3F)cc2)c1` [Compound 20a, 2'-Fluoro-N-(3-methoxyphenyl)-N,3'-dimethyl-[1,1'-biphenyl]-4-carboxamide] returned a melting point of 91 to 94 °C. Also, the inhibition at 1 µM in data set [1] worked out at 48%. In addition, the IC50 in data set [2] is 11300 nM. Besides, the half-life at 1 μM in data set [5] came to 1.73 h. In data set [4], the IC50 stood at 460 nM and the “s.f. (selectivity factor) = IC50(17β-HSD1)/IC50(17β-HSD2)” value is 24.
For the compound `COc1cccc(N(C)C(=O)c2ccc(-c3cccc(N(C)C)c3)cc2)c1` [Compound 15a, 3'-(Dimethylamino)-N-(3-methoxyphenyl)-N-methyl-[1,1'-biphenyl]-4-carboxamide], in data set [1], the inhibition at 1 µM stood at 67%. The IC50 in data set [2] is 5000 nM; in data set [4] it was 650 nM. Further, the “inhibition of m17β-HSD1 at 1 μM” value in data set [3] is listed as “None of the tested compounds showed any inhibition”. Moreover, the “s.f. (selectivity factor) = IC50(17β-HSD1)/IC50(17β-HSD2)” value in data set [4] is on record as 8.
For the compound `COc1cccc(-c2ccc(C(=O)N(C)c3cccc(C)c3)cc2)c1` [Compound 5a, 3'-Methoxy-N-methyl-N-(m-tolyl)-[1,1'-biphenyl]-4-carboxamide], the inhibition at 1 µM is 56% in data set [1], below 10% in data set [2] and 44% in data set [4]. Moreover, in data set [5], the half-life at 1 μM came to 1.93 h.
In the case of `Cc1cccc(N(C)C(=O)c2ccc(-c3ccc4c(c3)OCO4)cc2)c1` [Compound 23a, 4-(Benzo[d][1, 3]dioxol-5-yl)-N-methyl-N-(m-tolyl)benzamide], the melting point lay within 111 to 113 °C. In addition, in data set [1], the inhibition at 1 µM stood at 70%. The IC50 in data set [2] was determined as 10900 nM. Moreover, the “inhibition of m17β-HSD1 at 1 μM” value in data set [3] is on record as “None of the tested compounds showed any inhibition”. For the same compound, in data set [4], 560 nM corresponded to half-maximal inhibition (IC50) and the “s.f. (selectivity factor) = IC50(17β-HSD1)/IC50(17β-HSD2)” value turned out to be 20.
On to `COc1ccc(-c2ccc(C(=O)N(C)c3cccc(OC)c3)cc2)cc1` [Compound 10a, 4'-Methoxy-N-(3-methoxyphenyl)-N-methyl-[1,1'-biphenyl]-4-carboxamide], for which the melting point fell in the range of 128 to 130 °C. Also, the inhibition at 1 µM in data set [1] came out at 66%. The compound also yielded an IC50 in data set [2] of 27000 nM. Also, the “inhibition of m17β-HSD1 at 1 μM” value in data set [3] was “None of the tested compounds showed any inhibition”. In data set [4], the IC50 turned out to be 710 nM and the “s.f. (selectivity factor) = IC50(17β-HSD1)/IC50(17β-HSD2)” value is 38.
For the compound `COc1cccc(N(C)C(=O)c2ccc(-c3cccc(Cl)c3)cc2)c1` [Compound 14a, 3'-Chloro-N-(3-methoxyphenyl)-N-methyl-[1,1'-biphenyl]-4-carboxamide], in data set [1], the inhibition at 1 µM was 73%. For the same compound, half-maximal inhibition in data set [2] (IC50) required 12600 nM. Moreover, in data set [3], the “inhibition of m17β-HSD1 at 1 μM” value is reported as “None of the tested compounds showed any inhibition”. In addition, the half-life at 1 μM in data set [5] stood at 1.37 h. For the same compound, in data set [4], it took 950 nM to reach half-maximal inhibition (IC50) and the “s.f. (selectivity factor) = IC50(17β-HSD1)/IC50(17β-HSD2)” value came out at 13.
